Results as given in PubChem BioAssay AID1963837 (Molecular Pharmacology Branch, DTP, NCI, 2024).

Test system: 843126-344-R-J1-PDC complex spheroid viability
Experiment: Anticancer human tumor 843126-344-R-J1-PDC patient-derived melanoma cell line growth inhibition [POLQ]
Conditions: for IC50: curve of first compound; for viability, T/C: stronger effect = lower value
Method in brief: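 Growth inhibition in 3D: complex spheroids (tumor PDC, HUVEC, MSC) treated with POLQ inhibitor combinations; where Cmax unknown, highest tested concentration 10 microM, except SN-38 at 1 microM.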

[1] = second compound 0.0316 µM, first compound 0.0316 µM
[2] = second compound 0.0316 µM, first compound 0.1 µM
[3] = second compound 0.0316 µM, first compound 0.316 µM
[4] = second compound 0.0316 µM, first compound 1 µM
[5] = second compound 0.0316 µM, first compound 3.16 µM
[6] = second compound 0.0316 µM, first compound 10 µM
[7] = second compound 0.1 µM, first compound 0.0316 µM
[8] = second compound 0.1 µM, first compound 0.1 µM
[9] = second compound 0.1 µM, first compound 0.316 µM
[10] = second compound 0.1 µM, first compound 1 µM
[11] = second compound 0.1 µM, first compound 3.16 µM
[12] = second compound 0.1 µM, first compound 10 µM
[13] = second compound 0.316 µM, first compound 0.0316 µM
[14] = second compound 0.316 µM, first compound 0.1 µM
[15] = second compound 0.316 µM, first compound 0.316 µM
[16] = second compound 0.316 µM, first compound 1 µM
[17] = second compound 0.316 µM, first compound 3.16 µM
[18] = second compound 0.316 µM, first compound 10 µM
[19] = second compound 1 µM, first compound 0.0316 µM
[20] = second compound 1 µM, first compound 0.1 µM
[21] = second compound 1 µM, first compound 0.316 µM
[22] = second compound 1 µM, first compound 1 µM
[23] = second compound 1 µM, first compound 3.16 µM
[24] = second compound 1 µM, first compound 10 µM
[25] = second compound 3.16 µM, first compound 0.0316 µM
[26] = second compound 3.16 µM, first compound 0.1 µM
[27] = second compound 3.16 µM, first compound 0.316 µM
[28] = second compound 3.16 µM, first compound 1 µM
[29] = second compound 3.16 µM, first compound 3.16 µM
[30] = second compound 3.16 µM, first compound 10 µM
[31] = second compound 10 µM, first compound 0.0316 µM
[32] = second compound 10 µM, first compound 0.1 µM
[33] = second compound 10 µM, first compound 0.316 µM
[34] = second compound 10 µM, first compound 1 µM
[35] = second compound 10 µM, first compound 3.16 µM
[36] = second compound 10 µM, first compound 10 µM
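Throughout, for viability, T/C: spheroids exposed to drugs for seven days before readout.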

CNCc1ccc(-c2[nH]c3cc(F)cc4c3c2CCNC4=O)cc1 + COC1C(OC(N)=O)C(O)C(Oc2ccc3c(O)c(NC(=O)c4ccc(O)c(CC=C(C)C)c4)c(=O)oc3c2C)OC1(C)C gave an IC50 (second compound 0.0316 µM) of over 10 µM, an IC50 (second compound 0.1 µM) of over 10 µM and an IC50 (second compound 0.316 µM) of over 10 µM. The IC50 (second compound 1 µM) was over 10 µM, the IC50 (second compound 3.16 µM) was over 10 µM and the IC50 (second compound 10 µM) was over 10 µM. It also gave a viability, T/C [1] of 84.8%, a viability, T/C [2] of 94% and a viability, T/C [3] of 98.3%. It also gave a viability, T/C [4] of 92.3%, a viability, T/C [5] of 86.8% and a viability, T/C [6] of 87%. The viability, T/C [7] was 88%, the viability, T/C [8] was 102% and the viability, T/C [9] was 115%. The viability, T/C [10] was 94.3%, the viability, T/C [11] was 99.7% and the viability, T/C [12] was 87.1%. The viability, T/C [13] was 98.7%, the viability, T/C [14] was 88.6% and the viability, T/C [15] was 90.7%. It also gave a viability, T/C [16] of 96.1%, a viability, T/C [17] of 108% and a viability, T/C [18] of 70.5%. For the same compound, the viability, T/C [19] was 109%, the viability, T/C [20] was 98.6% and the viability, T/C [21] was 97.8%. It also gave a viability, T/C [22] of 95.8%, a viability, T/C [23] of 90.5% and a viability, T/C [24] of 74.6%. The viability, T/C [25] was 99.9%, the viability, T/C [26] was 96.9% and the viability, T/C [27] was 92%. The viability, T/C [28] was 101%, the viability, T/C [29] was 82.2% and the viability, T/C [30] was 85.4%. The viability, T/C [31] was 78.6%, the viability, T/C [32] was 97% and the viability, T/C [33] was 81%. It also gave a viability, T/C [34] of 100%, a viability, T/C [35] of 85.9% and a viability, T/C [36] of 100%.
With COc1ccc([C@@H](O)c2cc(-c3ncnc4cc(N5CCOCC5)ccc34)c(F)cc2Cl)nn1 + COC1C(OC(N)=O)C(O)C(Oc2ccc3c(O)c(NC(=O)c4ccc(O)c(CC=C(C)C)c4)c(=O)oc3c2C)OC1(C)C the IC50 (second compound 0.0316 µM) was over 10 µM, the IC50 (second compound 0.1 µM) was over 10 µM and the IC50 (second compound 0.316 µM) was 7.08 µM. The IC50 (second compound 1 µM) was over 10 µM, the IC50 (second compound 3.16 µM) was over 10 µM and the IC50 (second compound 10 µM) was 9.31 µM. For the same compound, the viability, T/C [1] was 116%, the viability, T/C [2] was 82.3% and the viability, T/C [3] was 105%. The viability, T/C [4] was 84.7%, the viability, T/C [5] was 85.7% and the viability, T/C [6] was 53.4%. It also gave a viability, T/C [7] of 85.8%, a viability, T/C [8] of 85.7% and a viability, T/C [9] of 116%. The viability, T/C [10] was 79.5%, the viability, T/C [11] was 81.6% and the viability, T/C [12] was 54.1%. It also gave a viability, T/C [13] of 93.4%, a viability, T/C [14] of 98.2% and a viability, T/C [15] of 92.8%. The viability, T/C [16] was 89%, the viability, T/C [17] was 63% and the viability, T/C [18] was 44.4%. The viability, T/C [19] was 95.8%, the viability, T/C [20] was 80.1% and the viability, T/C [21] was 92.8%. It also gave a viability, T/C [22] of 91%, a viability, T/C [23] of 85.6% and a viability, T/C [24] of 54.9%. The viability, T/C [25] was 87.8%, the viability, T/C [26] was 102% and the viability, T/C [27] was 90.3%. The viability, T/C [28] was 73.8%, the viability, T/C [29] was 85% and the viability, T/C [30] was 49.9%. The viability, T/C [31] was 87%, the viability, T/C [32] was 76% and the viability, T/C [33] was 109%. For the same compound, the viability, T/C [34] was 76%, the viability, T/C [35] was 69.6% and the viability, T/C [36] was 48.5%.
Cn1ncnc1[C@H]1c2n[nH]c(=O)c3cc(F)cc(c23)N[C@@H]1c1ccc(F)cc1 + COC1C(OC(N)=O)C(O)C(Oc2ccc3c(O)c(NC(=O)c4ccc(O)c(CC=C(C)C)c4)c(=O)oc3c2C)OC1(C)C gave an IC50 (second compound 0.0316 µM) of over 0.1 µM, an IC50 (second compound 0.1 µM) of over 0.1 µM and an IC50 (second compound 0.316 µM) of over 0.1 µM. The IC50 (second compound 1 µM) was over 0.1 µM, the IC50 (second compound 3.16 µM) was over 0.1 µM and the IC50 (second compound 10 µM) was over 0.1 µM. For the same compound, the viability, T/C (second compound 0.0316 µM, first compound 0.000316 µM) was 83.3%, the viability, T/C (second compound 0.0316 µM, first compound 0.001 µM) was 87.8% and the viability, T/C (second compound 0.0316 µM, first compound 0.00316 µM) was 108%. The viability, T/C (second compound 0.0316 µM, first compound 0.01 µM) was 106%, the viability, T/C [1] was 97.8% and the viability, T/C [2] was 76.5%. The viability, T/C (second compound 0.1 µM, first compound 0.000316 µM) was 96.7%, the viability, T/C (second compound 0.1 µM, first compound 0.001 µM) was 103% and the viability, T/C (second compound 0.1 µM, first compound 0.00316 µM) was 93.5%. The viability, T/C (second compound 0.1 µM, first compound 0.01 µM) was 91.8%, the viability, T/C [7] was 121% and the viability, T/C [8] was 87.2%. For the same compound, the viability, T/C (second compound 0.316 µM, first compound 0.000316 µM) was 90.1%, the viability, T/C (second compound 0.316 µM, first compound 0.001 µM) was 109% and the viability, T/C (second compound 0.316 µM, first compound 0.00316 µM) was 81.2%. The viability, T/C (second compound 0.316 µM, first compound 0.01 µM) was 102%, the viability, T/C [13] was 90.3% and the viability, T/C [14] was 94.2%. For the same compound, the viability, T/C (second compound 1 µM, first compound 0.000316 µM) was 89.7%, the viability, T/C (second compound 1 µM, first compound 0.001 µM) was 106% and the viability, T/C (second compound 1 µM, first compound 0.00316 µM) was 105%. It also gave a viability, T/C (second compound 1 µM, first compound 0.01 µM) of 84.3%, a viability, T/C [19] of 118% and a viability, T/C [20] of 76.1%. It also gave a viability, T/C (second compound 3.16 µM, first compound 0.000316 µM) of 85.1%, a viability, T/C (second compound 3.16 µM, first compound 0.001 µM) of 99.1% and a viability, T/C (second compound 3.16 µM, first compound 0.00316 µM) of 101%. The viability, T/C (second compound 3.16 µM, first compound 0.01 µM) was 89.9%, the viability, T/C [25] was 120% and the viability, T/C [26] was 94.1%. It also gave a viability, T/C (second compound 10 µM, first compound 0.000316 µM) of 83.9%, a viability, T/C (second compound 10 µM, first compound 0.001 µM) of 102% and a viability, T/C (second compound 10 µM, first compound 0.00316 µM) of 101%. It also gave a viability, T/C (second compound 10 µM, first compound 0.01 µM) of 86.9%, a viability, T/C [31] of 80.9% and a viability, T/C [32] of 81.7%.
